The text below walks through data of ChEMBL document CHEMBL1201862, “PubChem BioAssay data set” (2004).

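96-well plates; 48 h exposure; 5 concentrations. Endpoints by linear interpolation between flanking doses. Not reached: highest tested concentration assigned. GI50 is the concentration that inhibits growth by half.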 Active and inactive are the calls of the source. Rule as the data show it: active = GI50 up to about 1.1 µM and inactive = higher.

Some test systems named below: A549; COLO 205; EKVX; HCC 2998; HOP-62; HOP-92; K562; M14; MOLT-4; NCI-H226; NCI-H522; OVCAR-3; RXF 393; SF-268; SK-MEL-28; SN12C; SNB-19; SW-620; U-251.
Assay in all cases: NCI tumour cell line growth inhibition, 48 h

Consider `Brc1ccc2c(c1)-c1nc3c(cc1CC2)CCc1ccc(Br)cc1-3`, for which the GI50 in the test on A549, in the test with COLO 205, in the test on EKVX, with HCC 2998, in the test with HOP-62 and in the test with HOP-92 was > 100 µM (inactive) in each case. The GI50 in the test on K562 was 22.6 µM (inactive); in the test on M14 it was > 100 µM (inactive); in the test with MOLT-4 it was 42.4 µM (inactive); with NCI-H226 it was > 100 µM (inactive); with NCI-H522 it was > 100 µM (inactive); in the test on OVCAR-3, > 100 µM (inactive). Further, the GI50 in the test with RXF 393, in the test with SF-268, in the test with SK-MEL-28, in the test with SN12C, in the test with SNB-19 and with SW-620 was > 100 µM (inactive) each time. Also, the GI50 in the test with U-251 is > 100 µM (inactive).
For `CN(C)c1ccc(-c2c(C#N)c(O)n(NS(=O)(=O)c3ccccc3)c(=O)c2C#N)cc1`, the GI50 in the test with A549, with COLO 205, in the test on EKVX, with HCC 2998, in the test on HOP-62 and in the test on HOP-92 was > 100 µM (inactive) each time. The GI50 is > 100 µM (inactive) with K562; 0.643 µM (active) in the test with M14; > 100 µM (inactive) in the test on MOLT-4; > 100 µM (inactive) with NCI-H226; > 100 µM (inactive) in the test with NCI-H522; > 100 µM (inactive) in the test with RXF 393. Further, the GI50 in the test with SF-268, in the test on SK-MEL-28, with SN12C, in the test with SNB-19, with SW-620 and in the test with U-251 was > 100 µM (inactive) throughout.
With `CCOC(=O)/C(=C/c1cccc(OC)c1)N(CC)CC`, the GI50 in the test on A549, in the test with COLO 205, in the test with EKVX, in the test on HOP-62, in the test on HOP-92 and in the test with K562 was > 100 µM (inactive) each time. Besides, the GI50 in the test with M14, in the test on MOLT-4, with NCI-H226, with NCI-H522, in the test on OVCAR-3 and with SF-268 was > 100 µM (inactive) each time. Besides, the GI50 in the test on SK-MEL-28, in the test with SNB-19, with SW-620 and in the test with U-251 was > 100 µM (inactive) throughout.
Turning to `O=C(Nc1ccc(Cl)c(C(F)(F)F)c1)C(=O)c1c(O)c2ccccc2oc1=O`, the GI50 in the test on A549, in the test on EKVX, in the test with HCC 2998, in the test with HOP-62, with HOP-92 and with K562 was > 100 µM (inactive) throughout. Moreover, the GI50 in the test with M14, in the test on MOLT-4, in the test with NCI-H226, in the test with NCI-H522, with OVCAR-3 and in the test on RXF 393 was > 100 µM (inactive) in each case. In addition, the GI50 in the test with SF-268, with SK-MEL-28, in the test on SN12C, in the test with SNB-19, in the test with SW-620 and with U-251 was > 100 µM (inactive) each time.
With `O=C1c2ccccc2N2OC3(N4CCCC4)CCCC3C12c1ccccc1` (configuration not stated), the GI50 with A549 was 68.5 µM (inactive); in the test on COLO 205 it was > 100 µM (inactive); in the test with EKVX, > 100 µM (inactive); with HCC 2998, > 100 µM (inactive); in the test on HOP-62, > 100 µM (inactive); in the test on HOP-92 it was 34.8 µM (inactive). The GI50 with K562 is 76.6 µM (inactive); with M14, > 100 µM (inactive); with MOLT-4, 49.9 µM (inactive); in the test on NCI-H226 it was > 100 µM (inactive); with NCI-H522 it was > 100 µM (inactive); with RXF 393 it was > 100 µM (inactive). The GI50 in the test with SF-268, with SK-MEL-28, in the test with SN12C, with SNB-19, in the test with SW-620 and in the test on U-251 was > 100 µM (inactive) in each case.
On to `CCCC(N)C(=O)c1ccccc1` (configuration not stated), for which the GI50 in the test with A549, in the test with COLO 205, with EKVX, in the test with HCC 2998, in the test on HOP-62 and with HOP-92 was > 100 µM (inactive) throughout. Moreover, the GI50 with K562, in the test with M14, with NCI-H226, in the test on NCI-H522, in the test with OVCAR-3 and in the test with RXF 393 was > 100 µM (inactive) throughout. Further, the GI50 in the test with SF-268, in the test on SK-MEL-28, with SN12C, in the test on SNB-19, in the test with SW-620 and in the test with U-251 was > 100 µM (inactive) throughout.
With `CCOC(=O)c1cnc2[nH]c(=O)c3ccccc3n2c1=O`, the GI50 in the test with A549 was > 100 µM (inactive); in the test on COLO 205, > 100 µM (inactive); in the test on EKVX, > 100 µM (inactive); in the test with HOP-62 it was > 100 µM (inactive); in the test with HOP-92 it was > 100 µM (inactive); in the test on K562 it was 65 µM (inactive). In addition, the GI50 in the test on M14, with MOLT-4, in the test with NCI-H226, in the test on NCI-H522, with OVCAR-3 and in the test with RXF 393 was > 100 µM (inactive) in each case. The GI50 in the test on SF-268 is 94.6 µM (inactive); in the test on SK-MEL-28, > 100 µM (inactive); in the test on SN12C it was > 100 µM (inactive); with SNB-19, > 100 µM (inactive); in the test on SW-620, > 100 µM (inactive); with U-251, > 100 µM (inactive).
As to `CCN(CC)CCCCC1CCN(CC(=O)N2c3ccccc3NC(=O)c3ccccc32)CC1`, the GI50 in the test with A549, with COLO 205, in the test with EKVX, in the test with HCC 2998, with HOP-62 and in the test on HOP-92 was > 100 µM (inactive) in each case. The GI50 in the test with K562 was > 100 µM (inactive); with M14, 19.4 µM (inactive); in the test with MOLT-4 it was > 100 µM (inactive); in the test with NCI-H226 it was > 100 µM (inactive); with NCI-H522, > 100 µM (inactive); with OVCAR-3 it was > 100 µM (inactive). Besides, the GI50 in the test with SF-268, in the test with SK-MEL-28, in the test with SN12C, in the test on SNB-19 and with SW-620 was > 100 µM (inactive) each time.
